Test results taken from patent US11666589B2, “Pivarubicin and benzarubicin compositions” (Paradox Pharmaceuticals, Inc., priority 2020, dated 2023).

Columns and labels:
[1] = system: 293 embryonic human kidney cells; test: Drug biotransformation analysis (HPLC of intracellular drug) in 293 cells; format: in vitro ADME
Source text: (§1) Intracellular drug was extracted and analyzed by fluorescence HPLC as described previously.

[2] = system: 32D.3 murine myeloid cells; test: Drug biotransformation analysis (HPLC of intracellular drug) in 32D.3 cells; format: in vitro ADME
Source text: as §1

[3] = system: J774.2 murine macrophage-like cells; test: Drug biotransformation analysis (HPLC of intracellular drug) in J774.2 cells; format: in vitro ADME
Source text: as §1

[4] = system: 32D.3, J774.2 and 293 cells; test: Biotransformation to AD 288 after uptake into cells; format: in vitro ADME; conditions: 8 hours after drug uptake into cells
Source text: as §1

CEM/VLB-10 = conditions: CEM/VLB-10, selecting drug; cited from earlier work
CEM/VLB-100 = conditions: CEM/VLB-100, selecting drug; cited from earlier work

Row | SMILES | % Parent Compound ([1]; 293, 1 hr, 1 μM drug, 37° C.) [%] | % Parent Compound ([1]; 293, 8 hr (1 hr drug + 7 hours drug-free medium)) [%] | % Parent Compound ([2]; 32D.3, 1 hr, 1 μM drug, 37° C.) [%] | % Parent Compound ([2]; 32D.3, 8 hr (1 hr drug + 7 hours drug-free medium)) [%] | % Parent Compound ([3]; J774.2, 1 hr, 1 μM drug, 37° C.) [%] | % Parent Compound ([3]; J774.2, 8 hr (1 hr drug + 7 hours drug-free medium)) [%] | biotransformation to N-benzyladriamycin (AD 288) [4] | resistance (CEM/VLB-10) [fold] | resistance (CEM/VLB-100) [fold]
1 | CCCCC(=O)OCC(=O)[C@]1(O)Cc2c(O)c3c(c(O)c2[C@@H](O[C@H]2C[C@H](NCc4ccccc4)[C@H](O)[C@H](C)O2)C1)C(=O)c1c(OC)cccc1C3=O [AD 198, N-Benzyladriamycin-14-valerate] | 80 | 50 | 90 | 56 | 90 | 50 | approximately 50% | – | –
2 | CC[C@]1(O)C[C@@H]2CN(CCc3c([nH]c4ccccc34)[C@@](C(=O)OC)(c3cc4c(cc3OC)N(C)[C@H]3[C@@](O)(C(=O)OC)[C@H](OC(C)=O)[C@]5(CC)C=CCN6CC[C@]43[C@@H]65)C2)C1 [vinblastine] | – | – | – | – | – | – | – | 10.6 | 269
